Experimental data as given in PubChem BioAssay AID1963830 (Molecular Pharmacology Branch, DTP, NCI, 2024).

Tested on: 922993-354-T-J3-PDC complex spheroid viability
Test: Anticancer human tumor 922993-354-T-J3-PDC patient-derived endometrial carcinoma cell line growth inhibition [POLQ]
Conditions: for IC50: curve of first compound; for viability, T/C: stronger effect = lower value
Procedure, shortened: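 PDC + HUVEC + MSC complex spheroids; POLQ inhibitors ± partner drugs; top conc. at/near clinical Cmax, else 10 microM (SN-38 1 microM), half-log dilutions; 37 degrees C, 5% CO2.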

[1] = second compound 0.0316 µM, first compound 0.0316 µM
[2] = second compound 0.0316 µM, first compound 0.1 µM
[3] = second compound 0.0316 µM, first compound 0.316 µM
[4] = second compound 0.0316 µM, first compound 1 µM
[5] = second compound 0.0316 µM, first compound 3.16 µM
[6] = second compound 0.0316 µM, first compound 10 µM
[7] = second compound 0.1 µM, first compound 0.0316 µM
[8] = second compound 0.1 µM, first compound 0.1 µM
[9] = second compound 0.1 µM, first compound 0.316 µM
[10] = second compound 0.1 µM, first compound 1 µM
[11] = second compound 0.1 µM, first compound 3.16 µM
[12] = second compound 0.1 µM, first compound 10 µM
[13] = second compound 0.316 µM, first compound 0.0316 µM
[14] = second compound 0.316 µM, first compound 0.1 µM
[15] = second compound 0.316 µM, first compound 0.316 µM
[16] = second compound 0.316 µM, first compound 1 µM
[17] = second compound 0.316 µM, first compound 3.16 µM
[18] = second compound 0.316 µM, first compound 10 µM
[19] = second compound 1 µM, first compound 0.0316 µM
[20] = second compound 1 µM, first compound 0.1 µM
[21] = second compound 1 µM, first compound 0.316 µM
[22] = second compound 1 µM, first compound 1 µM
[23] = second compound 1 µM, first compound 3.16 µM
[24] = second compound 1 µM, first compound 10 µM
[25] = second compound 3.16 µM, first compound 0.0316 µM
[26] = second compound 3.16 µM, first compound 0.1 µM
[27] = second compound 3.16 µM, first compound 0.316 µM
[28] = second compound 3.16 µM, first compound 1 µM
[29] = second compound 3.16 µM, first compound 3.16 µM
[30] = second compound 3.16 µM, first compound 10 µM
[31] = second compound 10 µM, first compound 0.0316 µM
[32] = second compound 10 µM, first compound 0.1 µM
[33] = second compound 10 µM, first compound 0.316 µM
[34] = second compound 10 µM, first compound 1 µM
[35] = second compound 10 µM, first compound 3.16 µM
[36] = second compound 10 µM, first compound 10 µM
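Further: spheroids exposed to the agents for one week.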
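Wherever viability, T/C is given: 100% = DMSO vehicle control wells.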

C=CC(=O)N1CCN(c2nc(=O)n(-c3c(C)ccnc3C(C)C)c3nc(-c4c(O)cccc4F)c(F)cc23)C(C)C1 (centres undefined) + Nc1ccc(C#CCN(C(=O)Cc2ncc(C(F)(F)F)cc2C(F)(F)F)c2ccc(F)cc2)nn1
IC50 (second compound 0.0316 µM): > 10 µM
IC50 (second compound 0.1 µM): > 10 µM
IC50 (second compound 0.316 µM): > 10 µM
IC50 (second compound 1 µM): > 10 µM
IC50 (second compound 3.16 µM): > 10 µM
IC50 (second compound 10 µM): > 10 µM
viability, T/C [1]: 105%
viability, T/C [2]: 103%
viability, T/C [3]: 96.5%
viability, T/C [4]: 108%
viability, T/C [5]: 105%
viability, T/C [6]: 104%
viability, T/C [7]: 110%
viability, T/C [8]: 106%
viability, T/C [9]: 104%
viability, T/C [10]: 108%
viability, T/C [11]: 107%
viability, T/C [12]: 104%
viability, T/C [13]: 107%
viability, T/C [14]: 107%
viability, T/C [15]: 103%
viability, T/C [16]: 105%
viability, T/C [17]: 104%
viability, T/C [18]: 99.3%
viability, T/C [19]: 107%
viability, T/C [20]: 101%
viability, T/C [21]: 99.6%
viability, T/C [22]: 108%
viability, T/C [23]: 101%
viability, T/C [24]: 102%
viability, T/C [25]: 101%
viability, T/C [26]: 105%
viability, T/C [27]: 104%
viability, T/C [28]: 102%
viability, T/C [29]: 103%
viability, T/C [30]: 101%
viability, T/C [31]: 97.3%
viability, T/C [32]: 105%
viability, T/C [33]: 105%
viability, T/C [34]: 93.6%
viability, T/C [35]: 101%
viability, T/C [36]: 98.1%

CC(C)n1c(=O)n(C)c2cnc3cc(F)c(-c4ccc(OCCCN5CCCCC5)nc4)cc3c21 + Nc1ccc(C#CCN(C(=O)Cc2ncc(C(F)(F)F)cc2C(F)(F)F)c2ccc(F)cc2)nn1
IC50 (second compound 0.0316 µM): > 10 µM
IC50 (second compound 0.1 µM): > 10 µM
IC50 (second compound 0.316 µM): > 10 µM
IC50 (second compound 1 µM): > 10 µM
IC50 (second compound 3.16 µM): > 10 µM
IC50 (second compound 10 µM): > 10 µM
viability, T/C [1]: 101%
viability, T/C [2]: 99%
viability, T/C [3]: 99.1%
viability, T/C [4]: 95.2%
viability, T/C [5]: 93.9%
viability, T/C [6]: 86.7%
viability, T/C [7]: 107%
viability, T/C [8]: 103%
viability, T/C [9]: 104%
viability, T/C [10]: 95.3%
viability, T/C [11]: 86.7%
viability, T/C [12]: 84.7%
viability, T/C [13]: 106%
viability, T/C [14]: 107%
viability, T/C [15]: 93.9%
viability, T/C [16]: 101%
viability, T/C [17]: 93.9%
viability, T/C [18]: 80.1%
viability, T/C [19]: 103%
viability, T/C [20]: 95.9%
viability, T/C [21]: 99.6%
viability, T/C [22]: 98.9%
viability, T/C [23]: 94%
viability, T/C [24]: 80.4%
viability, T/C [25]: 96.9%
viability, T/C [26]: 99.4%
viability, T/C [27]: 94.6%
viability, T/C [28]: 98.1%
viability, T/C [29]: 88.6%
viability, T/C [30]: 84.1%
viability, T/C [31]: 98.8%
viability, T/C [32]: 92.8%
viability, T/C [33]: 94.9%
viability, T/C [34]: 90.6%
viability, T/C [35]: 92.5%
viability, T/C [36]: 82.1%
